Test results taken from patent publication US20130039887A1, “Methods of Identifying and Using Anti-Viral Compounds” (KINETA, INC., priority 2010, published 2013).

Legend:
[1] = tested on: Influenza A virus WSN strain (A/WSN/33); experiment: Influenza A virus nucleoprotein ELISA / Western blot assay; format: cell-based; settings: ELISA and Western blot
[2] = tested on: ISG54 promoter; experiment: ISG54-luciferase reporter assay in Huh7-ISG54-Luc cells; format: cell-based, human; settings: dose response (5-50 μM), 24 h
[3] = tested on: actin promoter; experiment: Actin promoter control cell line counter screen (β-actin-LUC); format: cell-based, human
[4] = tested on: Huh7, MRC5 and 293 cells; experiment: MTS cytotoxicity assay in multiple cell types (Huh7, MRC5, 293); format: cell-based, human
Method: All lead molecules chosen for further development mediate IRF-3 nuclear translocation and have antiviral activity against HCV. All induce dose-dependent activation of ISG expression in the absence of nonspecific promoter (β-actin) induction. To analyze in vitro cytotoxicity of lead agonist molecules, an MTS assay was conducted using multiple cell types (Huh7, human liver; MRC5, lung fibroblast; and 293, […]).

[5] = tested on: HCV2a virus; experiment: HCV immunofluorescence antiviral / focus-forming assay in Huh7 cells; format: cell-based, Hepatitis C virus; settings: Huh7 cells pre-treated 24 h (compounds 10 μM), HCV2a MOI 0.1-0.5
Method: HCV immunofluorescence antiviral assay: Huh7 cells are seeded on a 96-well plate at a density of 5×10^3 cells per well and grown for 24 hours. Compounds that have been diluted to 10 μM in media and contain a final concentration of 0.5% DMSO are added to each well and grown another 24 hours. The compound media solution is removed from the plate and stored in a clean tissue culture dish. Cell monolayers are washed with PBS and HCV2a virus is added at the stated MOI. Virus is incubated for 2-4 hours and then removed, the monolayers are washed with PBS and the compound solutions are replaced into each well.
The cells are grown overnight and then cells are fixed and stained for HCV proteins. All buffers and reagents used are from the Cellomics staining kits described above. HCV specific antibodies from either commercial sources or primary patient serum can be used to detect HCV infected cells in culture. […] The number of infected cells is counted and representative images are saved. […]
To measure levels of HCV infection with or without drug treatment the cells were stained for HCV specific staining using serum and a FITC conjugated fluorescent secondary antibody. […] Using an inverted fluorescent microscope the number of infected cells is quantitated (shown—FIG. 9 bottom panel). […]

Row | Compound | anti-influenza activity (viral nucleoprotein levels) [1] | induction of the ISG54-luciferase reporter [2] | nonspecific promoter induction (β-actin-LUC) [3] | cytotoxicity (MTS assay) [4] | HCV infection (infected cells stained for HCV proteins, IF assay) [5]
1 | NS(=O)(=O)c1ccc(-c2ccc(/C=C3/SC(=S)N(Cc4ccco4)C3=O)o2)cc1 [KIN300] | efficient, dose-dependent anti-influenza activity | dose-dependent induction | absence of nonspecific promoter induction | absence of cytotoxicity | 
2 | N#Cc1c(-c2ccccc2)cc(-c2ccccc2)nc1SCC(=O)N1CCOCC1 [KIN400] | efficient, dose-dependent anti-influenza activity |  |  |  | 
3 | COc1ccc(NC(=O)Cn2c(=O)n(Cc3ccco3)c(=O)c3oc4ccccc4c32)c(OC)c1 [KIN500] | efficient, dose-dependent anti-influenza activity |  |  |  | 
4 | Interferon |  |  |  |  | completely blocks HCV infection
